{
  "source": "patent US8344028B2",
  "about": "“Gamma-amino-butyric acid derivatives as GABAB receptor ligands” (XenoPort, Inc., priority 2009, dated 2013)",
  "key": {"[1]": {"target": "T1, recombinant human GABABR1a2 (Homo sapiens, UniProt Q9UBS5)", "T1 construct": "expressed in transfected cells; host or cells: HEK cells", "T1 sequence (Q9UBS5 15-961 limits assumed)": "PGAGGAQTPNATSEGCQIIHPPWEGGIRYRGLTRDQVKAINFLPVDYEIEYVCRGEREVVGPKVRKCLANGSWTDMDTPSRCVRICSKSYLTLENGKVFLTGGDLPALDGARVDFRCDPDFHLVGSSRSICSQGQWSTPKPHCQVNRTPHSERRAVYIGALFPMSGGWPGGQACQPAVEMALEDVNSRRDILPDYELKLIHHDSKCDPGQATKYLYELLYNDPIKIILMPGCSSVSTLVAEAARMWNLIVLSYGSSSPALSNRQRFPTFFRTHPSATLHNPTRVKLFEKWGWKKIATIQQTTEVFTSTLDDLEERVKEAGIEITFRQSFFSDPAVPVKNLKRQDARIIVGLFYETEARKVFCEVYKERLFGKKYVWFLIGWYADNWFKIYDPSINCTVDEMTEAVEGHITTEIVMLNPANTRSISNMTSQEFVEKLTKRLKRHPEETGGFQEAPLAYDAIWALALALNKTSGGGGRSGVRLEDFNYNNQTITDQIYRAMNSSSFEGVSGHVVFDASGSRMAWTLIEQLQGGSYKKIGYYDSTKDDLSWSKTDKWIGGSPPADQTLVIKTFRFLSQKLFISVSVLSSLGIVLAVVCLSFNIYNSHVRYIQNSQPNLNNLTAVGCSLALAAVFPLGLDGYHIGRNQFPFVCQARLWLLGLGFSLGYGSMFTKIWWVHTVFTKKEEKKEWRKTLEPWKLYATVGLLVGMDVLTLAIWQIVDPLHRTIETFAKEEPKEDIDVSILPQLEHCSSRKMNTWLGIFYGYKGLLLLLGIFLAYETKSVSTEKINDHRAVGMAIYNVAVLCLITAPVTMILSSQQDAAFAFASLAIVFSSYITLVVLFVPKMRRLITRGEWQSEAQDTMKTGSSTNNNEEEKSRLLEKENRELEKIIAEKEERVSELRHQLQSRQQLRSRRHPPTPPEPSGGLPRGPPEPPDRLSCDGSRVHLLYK", "T1 sequence (O75899 42-941 partner)": "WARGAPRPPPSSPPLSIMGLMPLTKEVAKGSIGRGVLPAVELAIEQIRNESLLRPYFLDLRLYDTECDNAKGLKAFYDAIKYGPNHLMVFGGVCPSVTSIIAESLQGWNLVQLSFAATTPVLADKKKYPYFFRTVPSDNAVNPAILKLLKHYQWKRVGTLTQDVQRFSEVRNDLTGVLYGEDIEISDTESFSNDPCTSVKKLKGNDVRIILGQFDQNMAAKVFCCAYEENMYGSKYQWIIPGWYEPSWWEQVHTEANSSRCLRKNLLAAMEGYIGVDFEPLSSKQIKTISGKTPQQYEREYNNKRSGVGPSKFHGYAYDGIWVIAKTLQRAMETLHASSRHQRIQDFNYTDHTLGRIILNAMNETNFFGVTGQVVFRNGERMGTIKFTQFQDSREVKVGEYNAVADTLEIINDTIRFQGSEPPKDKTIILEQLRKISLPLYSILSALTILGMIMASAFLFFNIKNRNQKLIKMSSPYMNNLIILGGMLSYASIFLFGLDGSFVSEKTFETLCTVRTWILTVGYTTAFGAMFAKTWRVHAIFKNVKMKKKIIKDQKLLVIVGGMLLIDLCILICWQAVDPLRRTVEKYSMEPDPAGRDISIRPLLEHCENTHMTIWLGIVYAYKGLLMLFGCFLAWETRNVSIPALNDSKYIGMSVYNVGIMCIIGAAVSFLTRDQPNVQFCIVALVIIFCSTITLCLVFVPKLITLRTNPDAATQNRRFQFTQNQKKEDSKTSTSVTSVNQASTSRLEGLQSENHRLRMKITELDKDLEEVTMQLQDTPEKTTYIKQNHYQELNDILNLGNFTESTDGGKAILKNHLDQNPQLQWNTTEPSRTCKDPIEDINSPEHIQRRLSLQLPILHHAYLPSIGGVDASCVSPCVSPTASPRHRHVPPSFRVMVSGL", "assay": "cAMP assay for determining GABAB receptor agonist activity", "assay_type": "cell-based", "conditions": "cells expressing recombinant human GABABR1a2; read-out: cAMP EC50"}, "GABAB receptor": {"target": "GABAB receptor (Homo sapiens, UniProt Q9UBS5)", "sequence (Q9UBS5 20-961)": "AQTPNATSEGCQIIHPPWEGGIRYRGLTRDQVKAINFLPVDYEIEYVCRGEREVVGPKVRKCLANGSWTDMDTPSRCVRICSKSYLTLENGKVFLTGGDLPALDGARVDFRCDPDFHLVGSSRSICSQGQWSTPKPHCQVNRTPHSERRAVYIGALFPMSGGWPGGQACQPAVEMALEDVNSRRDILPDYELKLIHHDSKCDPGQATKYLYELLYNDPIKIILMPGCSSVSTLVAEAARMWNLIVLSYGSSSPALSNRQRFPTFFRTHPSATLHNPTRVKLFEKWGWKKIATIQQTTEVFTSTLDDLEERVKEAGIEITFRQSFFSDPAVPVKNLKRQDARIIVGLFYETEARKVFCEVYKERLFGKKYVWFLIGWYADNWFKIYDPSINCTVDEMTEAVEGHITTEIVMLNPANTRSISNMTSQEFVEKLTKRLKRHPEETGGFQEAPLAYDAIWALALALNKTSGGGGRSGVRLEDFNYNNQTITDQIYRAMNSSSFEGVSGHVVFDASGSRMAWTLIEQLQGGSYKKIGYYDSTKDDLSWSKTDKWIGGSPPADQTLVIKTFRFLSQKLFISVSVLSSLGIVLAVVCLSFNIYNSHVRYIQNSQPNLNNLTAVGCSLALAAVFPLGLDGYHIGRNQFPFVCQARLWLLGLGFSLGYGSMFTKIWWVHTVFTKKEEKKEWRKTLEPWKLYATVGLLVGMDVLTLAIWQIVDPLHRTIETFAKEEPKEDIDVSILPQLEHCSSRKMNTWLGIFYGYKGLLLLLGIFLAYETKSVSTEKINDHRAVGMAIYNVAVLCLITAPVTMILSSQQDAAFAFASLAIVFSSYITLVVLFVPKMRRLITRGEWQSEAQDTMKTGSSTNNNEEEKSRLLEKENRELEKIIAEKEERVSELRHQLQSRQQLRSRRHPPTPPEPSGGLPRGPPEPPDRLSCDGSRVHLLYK", "sequence (O75899 42-941 partner)": "as the sequence (O75899 42-941 partner) above", "assay": "GABAB receptor agonist or partial agonist activity by binding, electrophysiology, cAMP and/or Ca2+ assay methods (Examples 83-86)", "assay_type": "cell-based", "summary_of_the_method": "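Binding: rat cortex membranes in 50 mM Tris pH 7.4 with 100 μM isoguvacine were preincubated 10 min at RT with compound, then radiolabeled CGP54626 (1-10 nM) was added; filtered and scintillation-counted. cAMP: GABAB R1a2 HEK cells, 1 h RT with 100 μM forskolin, chemiluminescence.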"}},
  "data": [
    {"compound": "Cl.NC[C@H](CC(=O)O)c1ccc(Cl)c(OCc2ccncc2)c1", "note": "[Example 68, (3R)-4-Amino-3-[4-chloro-3-(4-pyridylmethoxy)phenyl]butanoic acid hydrochloride]", "values": [
      {"measurement": "EC50", "setting": "[1]", "result": "< 0.1", "unit": "µM"},
      {"measurement": "GABAB receptor agonist or partial agonist activity", "setting": "GABAB receptor", "result": "agonist or partial agonist activity"}
    ]}
  ]
}
